From paper PMC12785804, “Triterpenoids CDDO and CDDO-EA Inhibit the Replication of Hepatitis B Virus by Modulating Nucleocapsid Assembly” (International Journal of Molecular Sciences, 2025)

Tests used:
[1] = target: T1, HBc (HBV core protein) in HepAD38 lysate (Hepatitis B virus ayw/France/Tiollais/1979, UniProt P03146); assay: CETSA, Western blot; assay type: biochemical; settings: cell lysate, 30 min at room temperature, then 37-72 °C for 3 min
T1 construct: gene C; full-length core expressed from the integrated tetracycline-regulated HBV genome of HepAD38 (HepG2-derived); freeze-thaw cell lysate

[2] = target: T2, HBc protein (HBV core protein), purchased (Hepatitis B virus ayw/France/Tiollais/1979, UniProt P03146); assay: SPR (Reichert4, CM5 chip); assay type: binding
T2 construct: gene C; purchased from Sino Biological; immobilised on CM5 chip
T2 sequence (P03146 whole entry): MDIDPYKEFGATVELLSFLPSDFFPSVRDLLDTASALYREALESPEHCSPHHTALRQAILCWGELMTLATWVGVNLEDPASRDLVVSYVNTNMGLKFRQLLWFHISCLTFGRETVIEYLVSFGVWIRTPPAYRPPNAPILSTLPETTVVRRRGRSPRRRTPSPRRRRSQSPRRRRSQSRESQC

T1 sequence (P03146 whole entry): as above

Compound	thermal shift (right-shifted CETSA melting curve) ([1]; 0.8 μM compound)	SPR binding [2]	thermal shift (right-shifted CETSA melting curve) ([1]; 0.4 μM compound)
CC1(C)CC[C@]2(C(=O)O)CC[C@]3(C)[C@H](C(=O)C=C4[C@@]5(C)C=C(C#N)C(=O)C(C)(C)[C@@H]5CC[C@]43C)[C@@H]2C1 [CDDO, 2-cyano-3,12-dioxooleana-1,9-dien-28-oic acid]	CDDO-EA and CDDO treatments significantly stabilized HBc protein	compounds CDDO-EA and CDDO exhibited weak binding kinetics to HBc protein	–
CCNC(=O)[C@]12CCC(C)(C)C[C@H]1[C@H]1C(=O)C=C3[C@@]4(C)C=C(C#N)C(=O)C(C)(C)[C@@H]4CC[C@@]3(C)[C@]1(C)CC2 [CDDO-EA]	–	compounds CDDO-EA and CDDO exhibited weak binding kinetics to HBc protein	CDDO-EA and CDDO treatments significantly stabilized HBc protein
